Experimental data from ChEMBL document CHEMBL2176973, “Synthesis and SAR Studies of Fused Oxadiazines as γ-Secretase Modulators for Treatment of Alzheimer's Disease” (ACS Med Chem Lett, 2012).
Calls of active or inactive are those of the source. The calls are words filed in the database; no cut-off is given here.

Tests used:
Gamma-secretase = experiment: Modulation of gamma-secretase expressed in HEK293 cells co-expressing APPsw-lon assessed as reduction of amyloid-beta-42 level by sandwich immunoassay; format: cell-based, Homo sapiens
[1] = target: T1, Gamma-secretase (Homo sapiens) (UniProt Q96BI3+Q9NZ42+Q8WW43+P49768+Q92542+P49810); experiment: Modulation of gamma-secretase expressed in HEK293 cells co-expressing APPsw-lon assessed as reduction of total amyloid beta/amyloid-beta-42 ratio by sandwich immunoassay; format: cell-based
[2] = Drug level in rat brain at 10 mg/kg, po after 6 hrs; format: ADME, organism-based; design: dose 10 mg/kg, route oral; conditions: read-out: Drug uptake
[3] = Plasma concentration in rat at 10 mg/kg, po after 3 hrs; format: ADME, organism-based; design: dose 10 mg/kg, route oral
[4] = AUC (0 to 6 hrs) in rat plasma at 10 mg/kg, po; format: ADME, organism-based; design: time < 6 hr, dose 10 mg/kg, route oral
[5] = Ratio of drug level in brain to plasma rat at 10 mg/kg, po after 6 hrs; format: ADME, organism-based; design: dose 10 mg/kg, route oral; conditions: read-out: BPR
Rattus norvegicus [6] = experiment: Antialzheimer's activity in rat assessed as reduction of amyloid-beta-42 level in CSF at 10 mg/kg, po after 3 hrs by AlphaLISA amyloid assay; format: functional
Rattus norvegicus [7] = experiment: Antialzheimer's activity in po dosed rat assessed as reduction of amyloid-beta-42 level in CSF after 3 hrs by AlphaLISA amyloid assay; format: functional, organism-based
Canis familiaris = organism: Canis familiaris; experiment: Cardiotoxicity in dog assessed as effect on QTc intervals; format: toxicity, organism-based, Canis lupus familiaris; conditions: in vivo
[8] = target: T1, Gamma-secretase (Homo sapiens); experiment: Modulation of gamma-secretase-mediated Notch processing expressed in HEK293 cells co-expressing human Notch1 protein up to 50 uM; format: cell-based
[9] = Volume of distribution at steady state in rat; format: ADME, organism-based; conditions: in vivo, read-out: Vdss
Caco-2 = experiment: Permeability across human Caco2 cells; format: ADME, cell-based
Rattus norvegicus [10] = organism: Rattus norvegicus; experiment: Toxicity in rat assessed as Notch-related side effects; format: organism-based; conditions: in vivo
[11] = Oral bioavailability in rat; format: ADME, organism-based; conditions: in vivo
Rattus norvegicus [12] = organism: Rattus norvegicus; experiment: Toxicity in rat assessed as biomarker changes; format: organism-based; conditions: in vivo
[13] = Activity at p-glycoprotein
hERG (KCNH2) = hERG (KCNH2) (Homo sapiens, UniProt Q12809); experiment: Inhibition of human ERG at 10 uM
Chain of hERG (KCNH2) (Q12809 whole entry): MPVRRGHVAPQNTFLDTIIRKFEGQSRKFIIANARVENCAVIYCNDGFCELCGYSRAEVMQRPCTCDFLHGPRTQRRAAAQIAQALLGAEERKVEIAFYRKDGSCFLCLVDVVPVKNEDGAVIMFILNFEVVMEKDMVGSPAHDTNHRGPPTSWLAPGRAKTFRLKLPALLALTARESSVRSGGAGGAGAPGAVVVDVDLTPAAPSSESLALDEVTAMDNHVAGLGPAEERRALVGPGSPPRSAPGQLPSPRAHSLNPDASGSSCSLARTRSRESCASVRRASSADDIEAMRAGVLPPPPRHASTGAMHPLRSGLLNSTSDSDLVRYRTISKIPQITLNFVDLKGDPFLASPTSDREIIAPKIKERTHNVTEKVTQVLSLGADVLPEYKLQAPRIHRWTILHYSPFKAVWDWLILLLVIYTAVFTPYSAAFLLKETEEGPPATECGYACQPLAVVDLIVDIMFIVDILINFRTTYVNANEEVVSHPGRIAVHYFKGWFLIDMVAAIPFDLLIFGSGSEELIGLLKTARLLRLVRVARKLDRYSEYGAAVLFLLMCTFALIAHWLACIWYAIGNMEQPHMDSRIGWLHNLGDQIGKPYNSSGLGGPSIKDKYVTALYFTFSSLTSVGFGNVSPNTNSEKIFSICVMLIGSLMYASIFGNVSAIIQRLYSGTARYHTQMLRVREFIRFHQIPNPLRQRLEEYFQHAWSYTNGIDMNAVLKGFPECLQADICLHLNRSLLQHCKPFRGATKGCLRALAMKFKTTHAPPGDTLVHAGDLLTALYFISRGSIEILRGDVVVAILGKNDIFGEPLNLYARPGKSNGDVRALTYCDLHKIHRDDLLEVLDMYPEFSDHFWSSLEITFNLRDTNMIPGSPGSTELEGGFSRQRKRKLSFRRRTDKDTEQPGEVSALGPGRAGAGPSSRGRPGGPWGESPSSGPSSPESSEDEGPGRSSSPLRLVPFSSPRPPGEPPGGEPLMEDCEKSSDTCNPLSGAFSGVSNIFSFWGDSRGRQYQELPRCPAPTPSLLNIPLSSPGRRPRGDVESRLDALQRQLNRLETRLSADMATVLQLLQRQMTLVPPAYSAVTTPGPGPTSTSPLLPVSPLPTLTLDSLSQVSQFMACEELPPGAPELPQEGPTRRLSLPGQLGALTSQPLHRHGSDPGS

[14] = Clearance in rat; format: ADME, organism-based; conditions: in vivo
[15] = Half life in rat; format: ADME, organism-based; conditions: in vivo
[16] = target: T2, Nuclear receptor subfamily 1 group I member 2 (Homo sapiens, UniProt O75469); experiment: Induction of PXR
T2 sequence (O75469 whole entry): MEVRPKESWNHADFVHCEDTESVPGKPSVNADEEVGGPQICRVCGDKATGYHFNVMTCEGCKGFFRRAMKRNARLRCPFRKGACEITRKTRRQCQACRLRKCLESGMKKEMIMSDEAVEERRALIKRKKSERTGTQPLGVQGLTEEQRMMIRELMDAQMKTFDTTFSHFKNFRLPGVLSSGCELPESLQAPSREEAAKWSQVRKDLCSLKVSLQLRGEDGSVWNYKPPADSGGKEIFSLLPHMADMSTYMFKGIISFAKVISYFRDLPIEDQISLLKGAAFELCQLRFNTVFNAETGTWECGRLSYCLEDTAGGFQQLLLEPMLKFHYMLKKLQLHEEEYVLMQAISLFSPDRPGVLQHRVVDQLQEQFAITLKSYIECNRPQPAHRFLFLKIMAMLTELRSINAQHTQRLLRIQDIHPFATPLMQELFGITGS

[17] = Inhibition of CYP450; format: ADME
[18] = Drug level in rat brain at 10 mg/kg, po after 3 hrs; format: ADME, organism-based; design: dose 10 mg/kg, route oral; conditions: read-out: Drug uptake

Compound	IC50 (Gamma-secretase) [nM]	Ratio [1]	also measured
COc1cc(/C=C2\CCCN3C2=NOCC3(C)c2ccc(F)cc2)ccc1-n1cnc(C)c1 (racemic)	230	69	–
COc1cc(/C=C2\CCCN3C2=NOC[C@@H]3CC(=O)N2CCCCC2)ccc1-n1cnc(C)c1	1500	13	–
COc1cc(/C=C2\CCCN3C2=NOC[C@@H]3Cc2ccccc2)ccc1-n1cnc(C)c1	80	238	–
COc1cc(/C=C2\CCCN3CC(c4ccccc4)ON=C23)ccc1-n1cnc(C)c1 (racemic)	210	91	–
COc1cc(/C=C2\O[C@@H](C)CN3C2=NOC[C@@H]3c2cc(F)cc(F)c2)ccc1-n1cnc(C)c1	35	550	–
COc1cc(/C=C2\CCCN3C2=NOC[C@@H]3c2cc(F)cc(Cl)c2)ccc1-n1cnc(C)c1	39	507	concentration at 6 h [2]: 1340 ng/g; concentration at 3 h [3]: 7.2 µM; AUC(0-t) at 6 h [4]: 24.6 µM·h; Kp at 6 h [5]: 1.1; inhibition in vivo at 10 mg/kg (Rattus norvegicus [6]): 62%
COc1cc(/C=C2\O[C@@H](C)CN3C2=NOC[C@@H]3c2cc(F)c(F)c(F)c2)ccc1-n1cnc(C)c1	46	320	–
COc1cc(/C=C2\CCCN3CC(c4cnccn4)ON=C23)ccc1-n1cnc(C)c1 (racemic)	9000	2	–
COc1cc(/C=C2\CCCN3C2=NOCC3C(O)c2ccc(Cl)cc2)ccc1-n1cnc(C)c1 (stereo not drawn)	300	49	–
COc1cc(/C=C2\CCCN3C2=NOC[C@@H]3CO)ccc1-n1cnc(C)c1	3300	6	–
CCc1csc(C[C@H]2CON=C3/C(=C/c4ccc(-n5cnc(C)c5)c(OC)c4)CCCN32)n1	6400	3	–
COc1cc(/C=C2\CCCN3C(=O)C(c4cc(F)cc(F)c4)ON=C23)ccc1-n1cnc(C)c1 (racemic)	1100	18	–
COc1cc(/C=C2\CCCN3CC(COCc4ccccc4)ON=C23)ccc1-n1cnc(C)c1 (racemic)	250	80	–
COc1cc(/C=C2\CCCN3C2=NOCC3(CO)c2ccc(F)cc2)ccc1-n1cnc(C)c1 (racemic)	13300	2	–
COc1cc(/C=C2\CCCN3C2=NOC[C@@H]3C2CCOCC2)ccc1-n1cnc(C)c1	1900	11	–
COc1cc(/C=C2\CCCN3C2=NOC3(CO)c2ccc(F)cc2)ccc1-n1cnc(C)c1 (stereo not drawn)	75	289	–
COc1cc(/C=C2\CCCN3C2=NOC[C@@H]3CS(C)(=O)=O)ccc1-n1cnc(C)c1	19000	1	–
COc1cc(/C=C2\CCCN3CC(COc4ccccc4)ON=C23)ccc1-n1cnc(C)c1 (racemic)	140	147	–
COc1cc(/C=C2\CCCN3C2=NOC[C@@H]3COCc2ccccc2)ccc1-n1cnc(C)c1	100	120	–
COc1cc(/C=C2\CCCN3C2=NOC[C@@H]3c2cc(F)c(OC)c(F)c2)ccc1-n1cnc(C)c1	44	459	concentration at 6 h [2]: 268 ng/g; concentration at 3 h [3]: 6.3 µM; AUC(0-t) at 6 h [4]: 22.7 µM·h; Kp at 6 h [5]: 1.1; inhibition in vivo at 10 mg/kg (Rattus norvegicus [6]): 26%
COc1cc(/C=C2\CCCN3C2=NOC[C@@H]3CNC(=O)c2cccc(Cl)c2)ccc1-n1cnc(C)c1	820	24	–
COc1cc(/C=C2\CCCN3C2=NOC[C@@H]3CC(C)C)ccc1-n1cnc(C)c1	73	149	–

Compound	IC50 (Gamma-secretase) [nM]	Ratio [1]	also measured
COc1cc(/C=C2\CCCN3C2=NOC[C@@H]3C(C)(C)C)ccc1-n1cnc(C)c1	120	162	–
COc1cc(/C=C2\CCCN3C(=O)CON=C23)ccc1-n1cnc(C)c1	2500	8	–
COc1cc(/C=C2\CCCN3CC(c4nccn4C)ON=C23)ccc1-n1cnc(C)c1 (racemic)	6700	3	–
COc1cc(/C=C2\CCCN3C2=NOCC32CCOc3ccc(F)cc32)ccc1-n1cnc(C)c1 (racemic)	400	50	–
COc1cc(/C=C2\CCCN3CC(c4cccc5ccccc45)ON=C23)ccc1-n1cnc(C)c1 (racemic)	130	158	–
COc1cc(/C=C2\CCCN3CC(CO[Si](c4ccccc4)(c4ccccc4)C(C)(C)C)ON=C23)ccc1-n1cnc(C)c1 (racemic)	56	80	–
COc1cc(/C=C2\CCCN3C2=NOC[C@@H]3c2cc(F)c(F)c(F)c2)ccc1-n1cnc(C)c1	33	607	inhibition (Rattus norvegicus [7]): Dose-dependent effect; Activity (Canis familiaris): Non-toxic; Activity [8]: inactive; Vd [9]: 0.4 L/kg; permeability (Caco-2): permeable; Activity (Rattus norvegicus [10]): Non-toxic; bioavailability [11]: 100%; concentration at 6 h [2]: 2910 ng/g; Activity (Rattus norvegicus [12]): Non-toxic; Activity [13]: inactive; concentration at 3 h [3]: 10.7 µM; AUC(0-t) at 6 h [4]: 87.4 µM·h; inhibition at 10 µM (hERG (KCNH2)): 76%; clearance [14]: 1.4 mL/min/kg; half-life [15]: 3.5 h; Kp at 6 h [5]: 0.4; inhibition in vivo at 10 mg/kg (Rattus norvegicus [6]): 62%
COc1cc(/C=C2\CCCN3C2=NOC32CCOc3ccc(F)cc32)ccc1-n1cnc(C)c1 (stereo not drawn)	58	223	–
COc1cc(/C=C2\O[C@H](C)CN3C2=NOC[C@@H]3c2cc(F)cc(F)c2)ccc1-n1cnc(C)c1	16	1220	–
COc1cc(/C=C2\CCCN3CC(C(O)c4cc(F)cc(F)c4)ON=C23)ccc1-n1cnc(C)c1 (racemic)	76	265	–
COc1cc(/C=C2\CCCN3C2=NOC[C@@H]3C(C)C)ccc1-n1cnc(C)c1	530	34	–
COc1cc(/C=C2\CCCN3C[C@H](c4cc(F)c(F)c(F)c4)ON=C23)ccc1-n1cnc(C)c1	48	328	concentration at 6 h [2]: 1880 ng/g; Activity [16]: Not Active; AUC(0-t) at 6 h [4]: 24.3 µM·h; inhibition at 10 µM (hERG (KCNH2)): 83%; inhibition (INH) [17]: Not Active; Kp at 6 h [5]: 1; inhibition in vivo at 10 mg/kg (Rattus norvegicus [6]): 45%
COc1cc(/C=C2\CCCN3C2=NO[C@]3(CO)c2ccc(F)cc2)ccc1-n1cnc(C)c1	29	488	–
COc1cc(/C=C2\CCCN3C2=NOC[C@@H]3CN2CCOCC2)ccc1-n1cnc(C)c1	3700	5	–
COc1cc(/C=C2\CCCN3C2=NOC[C@@H]3c2ccccc2)ccc1-n1cnc(C)c1	87	210	concentration at 3 h [18]: 2.8 µM; concentration at 6 h [2]: 539 ng/g; concentration at 3 h [3]: 6.2 µM; AUC(0-t) at 6 h [4]: 17.6 µM·h; Kp at 6 h [5]: 0.9; inhibition in vivo at 10 mg/kg (Rattus norvegicus [6]): 39%
COc1cc(/C=C2\CCCN3C2=NOC[C@@H]3c2ccc(F)cc2)ccc1-n1cnc(C)c1	37	385	concentration at 3 h [18]: 7.7 µM; concentration at 6 h [2]: 2850 ng/g; concentration at 3 h [3]: 6.7 µM; AUC(0-t) at 6 h [4]: 86.5 µM·h; Kp at 6 h [5]: 0.8; inhibition in vivo at 10 mg/kg (Rattus norvegicus [6]): 53%
COc1cc(/C=C2\O[C@H](C)CN3C2=NOC[C@@H]3c2cc(F)c(F)c(F)c2)ccc1-n1cnc(C)c1	11	1170	inhibition in vivo at 10 mg/kg (Rattus norvegicus [6]): 60%
COc1cc(/C=C2\CCCN3CC(Cc4ccccc4)ON=C23)ccc1-n1cnc(C)c1 (racemic)	83	241	–
COc1cc(/C=C2\CCCN3CC(CO)ON=C23)ccc1-n1cnc(C)c1 (racemic)	5400	4	–
COc1cc(/C=C2\CCCN3CCON=C23)ccc1-n1cnc(C)c1	3100	7	–
COc1cc(/C=C2\CCCN3C2=NOC3(C)c2ccc(F)cc2)ccc1-n1cnc(C)c1 (stereo not drawn)	58	237	–
